Test results reported in paper PMC11336141.
Ends that are not written are not given here.

Tests used:
perfused rat pancreas = experiment: Rat pancreas perfusion, glucagon output; design: species or system rat (Wistar); settings: bolus 10 mM L-arginine at end of experiment
Experimental: Non-fasted rats were anesthetized by a subcutaneous injection of a balanced mix of hypnorm and midazolam (0.3 mL/100 g body weight). Rats were placed on a heated operating table (37 °C) and the abdomen were opened. Blood vessels were tied off before removing the large and small intestines, the stomach, and the spleen. Then, the kidneys were ligated. […] The perfusion buffer was a modified Krebs-Ringer bicarbonate buffer with 5% (w/v) dextran T-70 (Pharmacosmos, Holbaek, Denmark), 0.1% (w/v) BSA (fraction V), 3.5 mM glucose and 3 mM vamin (Fresenius Kabi, Copenhagen, Denmark), pH adjusted to 7.4. […] Once perfusion of the pancreas was established, a catheter was inserted in the vena portae to collect the venous effluent and the rat was sacrificed by perforation of the diaphragm. After a 30-minute equilibration period, samples were collected every minute for the duration of the protocol. […] 10 mM L-Arginine was used as a positive control. Collected samples were immediately transferred on ice and stored at −20 °C until hormone analysis. Glucagon, insulin, and somatostatin concentrations in venous effluents were quantified by use of validated in-house radioimmunoassays (RIA) as previously described[36] (see below). Statistical analysis were performed where appropriate using one-way analysis of variance (ANOVA) with Dunnett’s post-test. Statistical significance was taken as p < 0.05.
Glucagon concentration in perfusion samples were measured by a validated in-house RIAs using the 4305 antibody, which reacts with the C-terminal epitope of glucagon[36] and no other cleavage products of pro-glucagon. Insulin concentrations were measured with the 2006 antibody, which measures all isoforms of rat insulin. […] Assay sensitivity was <1 pmol/L ( < 5 pmol/L for insulin detection), allowing reliable measurements of increments of at least 25 fmol/min.
Data analysis were performed in GraphPad Prism (v.9.4.1). Statistical analysis were performed using two-way repeated measure analysis of variance (ANOVA) with Šidák test for isolated islets glucagon secretion and one-way repeated measure ANOVA with Dunnett's test for rat pancreas perfusion experiments. Statistical significance was taken as p < 0.05.

human SSTR2 (GoB) = target: T1, human SSTR2 (GoB) (Homo sapiens, UniProt P30874); experiment: G protein activation (BRET dissociation) assay, GoB at hSSTR2; assay type: cell-based;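 note: percent of the maximal response to the reference somatostatin agonist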
T1 construct: host or cells: HEK293T cells
T1 sequence (P30874 whole entry): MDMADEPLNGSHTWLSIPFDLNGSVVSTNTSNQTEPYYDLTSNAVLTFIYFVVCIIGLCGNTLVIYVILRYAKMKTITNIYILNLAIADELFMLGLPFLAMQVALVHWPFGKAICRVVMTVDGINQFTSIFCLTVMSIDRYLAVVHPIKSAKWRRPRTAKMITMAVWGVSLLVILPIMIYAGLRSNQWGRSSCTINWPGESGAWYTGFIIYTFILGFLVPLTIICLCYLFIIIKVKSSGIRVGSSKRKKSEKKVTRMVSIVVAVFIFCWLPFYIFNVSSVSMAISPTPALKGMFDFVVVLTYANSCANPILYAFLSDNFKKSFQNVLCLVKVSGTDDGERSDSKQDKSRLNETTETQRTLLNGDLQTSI
Experimental: (§1) HEK293T cells were seeded onto 6-well plates at a density of 750,000 cells/well. […] 16 to 24 hours post-transfection, HEK293T cells were seeded onto white 96 well plate (PerkinElmer) coated with poly-L-lysine (PLL) at a density of 40,000 cells/well and were allowed to grow overnight. On the day of assay, cells were washed once with phosphate-based saline (PBS) and 80 µL of assay buffer which composed of PBS with 0.5 mM MgCl2 and 0.1% glucose, pH 7.4, were added onto each well. 10 µL of Nluc luciferase substrate furimazine (Promega) were added onto each well and incubated for 3 minutes.
(§2) The net BRET ratio was determined by subtracting the BRET ratio of drugs with the BRET ratio of vehicle control. Net BRET ratio over time was then plotted using GraphPad Prism (v.9.4.1), and the area-under-curve of net BRET ratio over time course for each ligand concentration tested were then determined and plotted against log(concentration) of drugs tested. […] Concentration response curves were fitted with a 4-parameter logistic Eq. (1) using GraphPad Prism (v.9.4.1):1 Y=Emin+(Emax−Emin)/1+10^logEC50−X×Hillslope

human SSTR2 (Gi3) = target: T2, human SSTR2 (Gi3) (Homo sapiens, UniProt P30874); experiment: G protein activation (BRET dissociation) assay, Gi3 at hSSTR2; assay type: cell-based;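 note: percent of the maximal response to the reference somatostatin agonist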
T2 construct: host or cells: HEK293T cells
T2 sequence (P30874 whole entry): as above
Experimental: as §1, §2

human SSTR3 = target: T3, human SSTR3 (Homo sapiens, UniProt P32745); experiment: PRESTO-Tango β-arrestin recruitment assay, hSSTR3; assay type: cell-based
T3 construct: Tango cassette (PRESTO-Tango template of Kroeze et al. 2015); Bryan Roth (Addgene) Addgene kit # 1000000068; host or cells: HTLA cells
T3 sequence (P32745 whole entry): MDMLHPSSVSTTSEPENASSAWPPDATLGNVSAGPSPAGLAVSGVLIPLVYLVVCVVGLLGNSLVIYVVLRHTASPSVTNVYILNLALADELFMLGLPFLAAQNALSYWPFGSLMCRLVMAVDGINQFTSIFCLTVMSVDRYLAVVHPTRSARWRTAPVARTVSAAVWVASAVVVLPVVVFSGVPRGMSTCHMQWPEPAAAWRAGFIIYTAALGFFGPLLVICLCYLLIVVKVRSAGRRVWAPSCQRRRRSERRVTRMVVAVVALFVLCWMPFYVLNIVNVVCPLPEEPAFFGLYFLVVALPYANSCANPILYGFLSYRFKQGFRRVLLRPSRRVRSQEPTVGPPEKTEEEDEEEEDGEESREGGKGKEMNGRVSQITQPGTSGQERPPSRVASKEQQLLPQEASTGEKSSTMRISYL
Excerpt: HTLA cells were given by Prof.
The assay was done as described in ref. [12].

human SSTR2 = human SSTR2 (Homo sapiens, UniProt P30874); experiment: PRESTO-Tango β-arrestin recruitment assay, hSSTR2; settings: read-out: Emax ± S.E.M., Table S1; % of maximal response relative to SS-14
human SSTR2, sequence (P30874 whole entry): as the sequence (P30874 whole entry) above
Experimental: HTLA cells were given by Prof. Bryan Roth (University of North Carolina, Chapel Hill, US) and were maintained in Dulbecco’s modified Eagle’s medium (DMEM) supplemented with 10% Fetal Bovine Serum (FBS) (Biowest) and 100 U/mL penicillin and 100 µg/mL streptomycin at 37 °C in a humidified incubator supplemented with 5% CO2. Constant selective pressure for tTA-dependent luciferase reporter and a β-arrestin 2 tobacco etch virus protease fusion gene were maintained with the addition of 100 µg/mL hygromycin B and 2 µg/ml puromycin (Tango growth medium).
Briefly, HTLA cells (1 million cells/well) were seeded in 6-well plates in Tango growth medium, and incubated overnight. On day 2, medium was changed to Tango growth medium without hygromycin B and puromycin. Cells were then transfected using Polyfect (Qiagen) according to manufacturer’s protocol. On day 3, 15,000 cells in 40 µL DMEM supplemented with 1% dialyzed FBS (Tango assay medium) per well were seeded in poly-D-lysine-coated white clear-bottom 384 well plates (Corning) and incubated overnight. On day 4, the Tango assay medium was changed and 10 µL of each of the peptide was added at 5x final concentration. The peptides were resuspended in HBSS with 20 mM HEPES, 1 mM of CaCl2, 1 mM of MgCl2, pH adjusted to 7.4 with 1 M NaOH (Tango assay buffer), which was supplemented with 0.1% BSA (Tango ligand buffer). After overnight incubation, on day 5, the medium and the compounds were removed from the cells and 20 µL of 1:20 dilution of BrightGlo (Promega) in Tango assay buffer supplemented with 0.01% pluronic F68 was added to the cells. Plates were incubated for 20 minutes in the dark at room temperature. Luminescence was measured on a Molecular Devices SpectraMax iD5 (Molecular Devices) with each well integrated for 1 second.

human SSTR2 (Gi2) = target: T4, human SSTR2 (Gi2) (Homo sapiens, UniProt P30874); experiment: G protein activation (BRET dissociation) assay, Gi2 at hSSTR2; assay type: cell-based;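 note: percent of the maximal response to the reference somatostatin agonist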
T4 construct: host or cells: HEK293T cells
T4 sequence (P30874 whole entry): as above
Experimental: as §1, §2

human SSTR2 (Gi1) = target: T5, human SSTR2 (Gi1) (Homo sapiens, UniProt P30874); experiment: G protein activation (BRET dissociation) assay, Gi1 at hSSTR2; assay type: cell-based;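 note: percent of the maximal response to the reference somatostatin agonist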
T5 construct: host or cells: HEK293T cells
T5 sequence (P30874 whole entry): as above
Experimental: as §1, §2

human SSTR2 (GoA) = human SSTR2 (GoA) (Homo sapiens, UniProt P30874); experiment: G protein activation (BRET dissociation) assay, GoA at hSSTR2; settings: read-out: Emax ± S.E.M.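 Note: percent of the maximal response to the reference somatostatin agonist.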
human SSTR2 (GoA), sequence (P30874 whole entry): as above
Experimental: as §1, §2

[1] = tested on: mock (pcDNA) transfected HEK293T cells; experiment: GoA dissociation in mock (pcDNA) transfected HEK293T cells; assay type: cell-based; settings: Fig. S6B
Experimental: The following protocol was adopted from Masuho et al., 2015[33]. HEK293T cells were seeded onto 6-well plates at a density of 750,000 cells/well. […] 16 to 24 hours post-transfection, HEK293T cells were seeded onto white 96 well plate (PerkinElmer) coated with poly-L-lysine (PLL) at a density of 40,000 cells/well and were allowed to grow overnight. On the day of assay, cells were washed once with phosphate-based saline (PBS) and 80 µL of assay buffer which composed of PBS with 0.5 mM MgCl2 and 0.1% glucose, pH 7.4, were added onto each well. 10 µL of Nluc luciferase substrate furimazine (Promega) were added onto each well and incubated for 3 minutes.
Crude C. geographus venom was subjected to reversed-phase high performance liquid chromatography (RP-HPLC). Pools consisting of 5 adjacent fractions were then tested for their ability to induce GoA dissociation at the hSSTR2. […] Error bars represent means ± S.E.M. of only one technical experiment in duplicate.
Error bars represent means ± S.E.M. of only one technical experiment in duplicate.

[2] = target: zebrafish sstr2b, Tango construct (zebrafish (Danio rerio))
[3] = target: zebrafish sstr2a, Tango construct (zebrafish (Danio rerio)) (UniProt E7FDL0)
plasma glucose = settings: compared with GLP-1; cited from earlier work
Excerpt: Another example of a doppelganger peptide with drug-like properties that targets glucose homeostasis is exendin-4, a glucagon-like peptide-1 (GLP-1) peptide derived from the salivary gland of the Gila monster, Heloderma suspectum. […] Following successful clinical trials, exendin-4 (exenatide) entered the market in 2005 as a first-in-class incretin-mimetic for the treatment of type 2 diabetes (T2D). Since then, several other GLP-1 analogs have been devel ...

In the case of `N=C(N)NCCC[C@H](N)C(=O)O` [L-arginine, reference compound], the “effect on glucagon levels (positive control)” value (perfused rat pancreas) is reported as “revert glucagon levels”.

`C[C@@H](O)[C@@H]1NC(=O)[C@H](CCCCN)NC(=O)[C@@H](Cc2c[nH]c3ccccc23)NC(=O)[C@H](Cc2ccccc2)NC(=O)[C@@H](NC(=O)[C@H](N)Cc2ccccc2)CSSC[C@@H](C(=O)N[C@H](CO)[C@@H](C)O)NC1=O` [Octreotide, octreotide, reference compound] showed an Emax (human SSTR2 (GoB)) of 101 ± 2.64%, an Emax (human SSTR2 (Gi3)) of 77.5 ± 3.67% and an Emax (human SSTR3) of 108 ± 13.4%. It also gave an Emax (human SSTR2) of 94 ± 1.4%, an Emax (human SSTR2 (Gi2)) of 64 ± 2.97% and an Emax (human SSTR2 (Gi1)) of 84.2 ± 4.44%. For the same compound, the Emax (human SSTR2 (GoA)) was 96.2 ± 4.77%.

With “SST-14 (AGCKNFFWKTFTSC; not fully specified (bridges); ends and bridges not checked; UniProt P61278 103-116, looked up)” the “pcDNA/GoA response, Mean” value ([1]; at pEC20, data row 1) was 0.005611, the “pcDNA/GoA response, Mean” value ([1]; at pEC20, data row 2) was 0.02323 and the “pcDNA/GoA response, Mean” value ([1]; at pEC20, data row 3) was 0.002971. The “pcDNA/GoA response, Mean” value ([1]; at pEC50, data row 1) was 0, the “pcDNA/GoA response, Mean” value ([1]; at pEC50, data row 2) was 0.0008161 and the “pcDNA/GoA response, Mean” value ([1]; at pEC50, data row 3) was 0.

Compound “Somatostatin-14 (from UniProt P61278 103-116) (peptide)” has an EC50, PRESTO-Tango β-arrestin recruitment assay [2] of 132 nM and an EC50, PRESTO-Tango β-arrestin recruitment assay [3] of 28.6 nM.

For exendin-4, the “in vivo half-life in words” value (plasma glucose) is listed as “significantly longer in vivo half-life than GLP-1” and the “potency in lowering plasma glucose in words” value (plasma glucose) is listed as “much greater potency in lowering plasma glucose”.
